Non-standard residues stand in square brackets, D forms with d. Residues, ends and D or L forms follow the SMILES beside them. ξ: configuration not given here. *: point of attachment. Dansyl = CN(C)c1cccc2c(S(=O)(=O)*)cccc12; ξPip = O=C(O)C1CCCCN1
target: T1, thrombin (Bos taurus, UniProt P00735); assay: fibrinogen coagulation time (concentration required to prolong the coagulation time by a factor of two); format: biochemical; details: bovine fibrinogen, thrombin 5 units/ml, borate saline buffer pH 7.4, 25° C; control 50-55 seconds prolonged to 100-110 seconds
T1 construct: clotting of bovine fibrinogen
Description: The measurement of the fibrinogen coagulation time was conducted as follows:
Immediately after mixing, the reaction mixture was transferred from the ice bath to a bath maintained at 25° C. Coagulation times were taken as the period between the time of transference to the 25° C bath and the time of the first appearance of fibrin threads. […] The term "concentration required to prolong the coagulation time by a factor of two" is the concentration of an active ingredient required to prolong the normal coagulation time 50-55 seconds to 100-110 seconds.

IC (2-fold clotting time) [µM] | SMILES
10 | COCCN(CC(=O)O)C(=O)[C@H](CCCNC(=N)N)NS(=O)(=O)c1cccc2c1CCCC2 [compound 132]
2 | CCCCN(CC(=O)O)C(=O)[C@H](CCCNC(=N)N)NS(=O)(=O)c1cc(OC)c2cc(OC)ccc2c1 [compound 25]
20 | COc1ccc2ccc(S(=O)(=O)N[C@@H](CCCNC(=N)N)C(=O)N(CCc3ccccc3)CC(=O)O)cc2c1 [compound 64]
2 | COc1cc2ccc(S(=O)(=O)N[C@@H](CCCNC(=N)N)C(=O)N3CCCC[C@@H]3C(=O)O)cc2cc1OC [compound 220]
4 | CCCCN(CC(=O)O)C(=O)[C@H](CCCNC(=N)N)NS(=O)(=O)c1cccc2c(N(C)C)cccc12 [compound 153]

SMILES | IC (2-fold clotting time) [µM]
CCSCCN(CC(=O)O)C(=O)[C@H](CCCNC(=N)N)NS(=O)(=O)c1ccc2cc(OC)c(OC)cc2c1 [compound 69] | 5

test system: not listed separately; assay: acute toxicity (LD50), intraperitoneal administration in mice; format: in vivo, mice (male, 20 g); details: comparison with N^2 -dansyl-L-argininamides; route and species not restated

SMILES | LD50 values (comparison dansyl compounds) [milligrams per kilogram]
CCCCN(C)C(=O)[C@H](CCCNC(=N)N)NS(=O)(=O)c1cccc2c(N(C)C)cccc12 [N^2 -dansyl-N-methyl-N-butyl-L-argininamide, reference compound] | 70
CCCCNC(=O)[C@H](CCCNC(=N)N)NS(=O)(=O)c1cccc2c(N(C)C)cccc12 [N^2 -dansyl-N-butyl-L-argininamide, reference compound] | 75

same assay, conditions: intraperitoneal, mice (male, 20 g)

SMILES | LD50
COc1cc2ccc(S(=O)(=O)N[C@@H](CCCNC(=N)N)C(=O)N(CC(=O)O)C3CCCCC3)cc2cc1OC [N^2-(6,7-dimethoxy-2-naphthylsulfonyl)-L-arginyl-N-cyclohexylglycine] | > 1,500 mg/kg

same assay, conditions: mouse, in vivo, ip, intraperitoneal, mice (male, 20 g); read-out: LD50

SMILES | LD50 [mg/kg]
COc1cc2ccc(S(=O)(=O)N[C@@H](CCCNC(=N)N)C(=O)N3Cc4ccccc4CC3C(=O)O)cc2cc1OC (stereo partly drawn) [2-N^2-(6,7-dimethoxy-2-naphthylsulfonyl)-L-arginyl!-1,2,3,4-tetrahydroisoquinoline-3-carboxylic acid] | > 1000
COc1ccc2cc(S(=O)(=O)N[C@@H](CCCNC(=N)N)C(=O)N(CC3CCCCC3)[C@@H](C)C(=O)O)cc(OC)c2c1 [N^2-(4,6-dimethoxy-2-naphthylsulfonyl)-L-arginyl-N-cyclohexylmethylalanine] | > 1500
COc1cc2ccc(S(=O)(=O)N[C@@H](CCCNC(=N)N)C(=O)N(CC(=O)O)CC3CCCCC3)cc2cc1OC [N^2-(6,7-dimethoxy-2-naphthylsulfonyl)-L-arginyl-N-cyclohexylmethylglycine] | > 1500
COc1cc2ccc(S(=O)(=O)N[C@@H](CCCNC(=N)N)C(=O)N(CC(=O)O)C3CCCCC3)cc2cc1OC [N^2-(6,7-dimethoxy-2-naphthylsulfonyl)-L-arginyl-N-cyclohexylglycine] | 1500
CCCCN(C(=O)[C@H](CCCNC(=N)N)NS(=O)(=O)c1ccc2cc(OC)c(OC)cc2c1)[C@@H](C)C(=O)O [N^2-(6,7-dimethoxy-2-naphthylsulfonyl)-L-arginyl-N-butylalanine] | > 1500
COc1cc2ccc(S(=O)(=O)N[C@@H](CCCNC(=N)N)C(=O)N3Cc4ccccc4C3C(=O)O)cc2cc1OC (stereo partly drawn) [2-N^2-(6,7-dimethoxy-2-naphthylsulfonyl)-L-arginyl!-1-isoindolinecarboxylic acid] | > 1000
COCCN(CC(=O)O)C(=O)[C@H](CCCNC(=N)N)NS(=O)(=O)c1ccc2cc(OC)c(OC)cc2c1 [N^2-(6,7-dimethoxy-2-naphthylsulfonyl)-L-arginyl-N-(2-methoxyethyl)glycine] | 1900 to 2400
COc1ccc2ccc(S(=O)(=O)N[C@@H](CCCNC(=N)N)C(=O)N3CCOCC3C(=O)O)cc2c1 (stereo partly drawn) [4-N^2-(7-methoxy-2-naphthylsulfonyl)-L-arginyl!-3-morpholinecarboxylic acid] | > 1000
COCCN(CC(=O)O)C(=O)[C@H](CCCNC(=N)N)NS(=O)(=O)c1ccc2ccc(OC)cc2c1 [N^2-(7-methoxy-2-naphthylsulfonyl)-L-arginyl-N-(2-methoxyethyl)glycine] | 2000
Cc1ccc2ccc(S(=O)(=O)N[C@@H](CCCNC(=N)N)C(=O)N(CC(=O)O)CC3CCCO3)cc2c1 (stereo partly drawn) [N^2-(7-methyl-2-naphthylsulfonyl)-L-arginyl-N-tetrahydrofurfurylglycine] | 600
CCOCCN(CCC(=O)O)C(=O)[C@H](CCCNC(=N)N)NS(=O)(=O)c1ccc2cc(OC)c(OC)cc2c1 [N^2-(6,7-dimethoxy-2-naphthylsulfonyl)-L-arginyl-N-(2-ethoxyethyl)-β-alanine] | 660 to 1000
COCCN(CC(=O)O)C(=O)[C@H](CCCNC(=N)N)NS(=O)(=O)c1cc(OC)c2cc(OC)ccc2c1 [N^2-(4,6-dimethoxy-2-naphthylsulfonyl)-L-arginyl-N-(2-methoxyethyl)glycine] | 660 to 1000
COc1cc2ccc(S(=O)(=O)N[C@@H](CCCNC(=N)N)C(=O)N(CC(=O)O)CC3CCCO3)cc2cc1OC (stereo partly drawn) [N^2-(6,7-dimethoxy-2-naphthylsulfonyl)-L-arginyl-N-tetrahydrofurfurylglycine] | 620
CC1CCN(C(=O)[C@H](CCCNC(=N)N)NS(=O)(=O)c2cccc3ccccc23)C(C(=O)O)C1 (stereo partly drawn) [1-N^2-(1-naphthylsulfonyl)-L-arginyl!-4-methyl-2-piperidinecarboxylic acid] | 700 to 1000
CCSCCN(CC(=O)O)C(=O)[C@H](CCCNC(=N)N)NS(=O)(=O)c1ccc2cc(OC)c(OC)cc2c1 [N^2-(6,7-dimethoxy-2-naphthylsulfonyl)-L-arginyl-N-(2-ethylthioethyl)glycine] | > 1000
CN(C)c1cccc2c(S(=O)(=O)N[C@@H](CCCNC(=N)N)C(=O)N3CCCCC3C(=O)O)cccc12 (stereo partly drawn) [1-N^2-(5-dimethylamino-1-naphthylsulfonyl)-L-arginyl!-2-piperidinecarboxylic acid] (Dansyl-Arg-[ξPip]-OH) | 700 to 1000

Source: patent publication US4073913A, “N^2 -arylsulfonyl-L-argininamides and the pharmaceutically acceptable salts thereof” (Mitsubishi Chemical Industries Limited, priority 1974, dated 1978)
